From US9012513B2, “Antioxidant, antioxidant composition and production method therefor” (Watanabe Oyster Laboratory Co., Ltd., priority 2011, dated 2015)
“Also recorded” adds a separate entry of the source.

How the values were obtained:
[1] = antioxidant capacity by the ORAC method (Fluorescein, AAPH); assay type: biochemical
Method: The 3,5-dihydroxy-4-methoxybenzyl alcohol can be separated and purified by the following operation. First, Trolox (Wako) or a test sample of 0.05 mL dissolved in a mixed solution of 0.075 mol/L phosphoric acid buffer solution 2.3 of 5 mL, 6.3×10^−7 mol/L Fluorescein (fluorescent probe) of 0.3 mL, and 7% (w/v) methylated β-cyclodextrin (Wako) was warmed for 10 minutes at 37° C.
1.28×10^−1 mol/L2,2′-azobis(2-amidinopropane)dihydrochloride (AAPH, Wako), which has been preliminarily warmed at 37° C., was added by 0.3 mL. For example, while stirring with a stirrer, a fluorescence intensity (excitation wavelength: 493 nm, fluorescence wavelength: 515 nm) was measured for every 10 seconds and up to 5,000 seconds by a spectrofluorophotometer (FP-6500 , JASCO, Tokyo).
An antioxidant activity is indicated by length of period (for example, the horizontal axis in FIG. 5) during which a measured fluorescence value (the vertical axis in the same drawing) at the start of measurement is maintained. The longer the period, the stronger the antioxidant activity is.
Methods for measuring an antioxidant substance in a food product have been variously reported. However, all the methods have a drawback and an advantage, and therefore the method has not been standardized or determined as an official method (confirmation of validity of an analysis value). However, in the United States of America, a supplement and a beverage with an ORAC value have already been on the market. This trend is becoming a world standard. Accordingly, in this working example, the antioxidative potency is measured by the ORAC method.
A research conference that studies on employing the ORAC method as an official method (Antioxidant-Unit Research Association) has already been founded in Japan. The ORAC method has advantages in that both a soluble sample and a liposoluble sample can be measured and the above-described any organic solvent fractions can be measured. […]

normal human LDL = experiment: metal oxidation of normal human LDL by copper sulfate, quantitated by TBARS method; assay type: biochemical
Method: When normal human LDL is oxidized by copper sulfate, 3,5-dihydroxy-4-methoxybenzyl alcohol was added, and the degree of oxidation of the LDL was quantitated by a TBARS method (see FIG. 11). […] The Lag-time refers to a period where a rise of a curve is not observed. It is determined that, as the time increases, antioxidant activity occurs. However, the lag-time was extended by dose dependency. The lag-time was 2 hours for addition of 270 μM, 4 hours for addition of 360 μM, and 5 hours for addition of 450 μM and 540 μM.

[2] = test system: cell line (C3A) in a liver; experiment: oxidation of DPPP-labeled hepatocyte culture (C3A) by AAPH; assay type: cell-based; settings: cultured for 5 days with the substance, compared with cell without the substance
Method: FIG. 12 illustrates the principle of the fluorescence of the diphenyl-1-pyrenlphosphine (DPPP). Using the fluorescent dye, the degree of oxidation of a cell line (C3A) in a liver was observed.
A cell where the 3,5-dihydroxy-4-methoxybenzyl alcohol according to the present invention had been added was cultured for 5 days. The cell labeled by DPPP was oxidized by 2,2′-azobis (2-methylpropionamidine)dihydrochloide, and then the fluorescence intensity of the DPPP in each cell was measured. […] It was confirmed that the antioxidant substance, 3,5-dihydroxy-4-methoxybenzyl alcohol, reduced the oxidation (see FIG. 13).

[3] = properties of the separated and purified substance (solubility); assay type: physicochemical
Excerpt: Here, the properties of 3,5-dihydroxy-4-methoxybenzyl alcohol, which was separated and purified, will be described. […] It was confirmed that the 3,5-dihydroxy-4-methoxybenzyl alcohol was a phenolic compound as illustrated in FIG. 8.

## COc1c(O)cc(CO)cc1O [3,5-dihydroxy-4-methoxybenzyl alcohol]
[1]
  ORAC value relative to that of L(+)-ascorbic acid: three times
[1]; length of period during which the fluorescence value is maintained
  antioxidant capacity / antioxidant activity observed by the ORAC method: high antioxidant activity was observed; also recorded: high antioxidant capacity between those of a chlorogenic acid and L(+)- the ascorbic acid
[1]; synthesized product
  ORAC value: 1.47±0.40 μmoITE/μmol
Normal human LDL; addition of 270 μM
  lag-time of LDL oxidation: 2 h
Normal human LDL; addition of 360 μM
  lag-time of LDL oxidation: 4 h
Normal human LDL; addition of 450 μM
  lag-time of LDL oxidation: 5 h
Normal human LDL; addition of 540 μM
  lag-time of LDL oxidation: 5 h
Normal human LDL; copper sulfate, TBARS
  effect on metal oxidation of the LDL: reduced the metal oxidation of the LDL; also recorded: showed an antioxidant capacity in a dose-dependent manner
Normal human LDL; substance added at 180 μM
  lag-time of LDL oxidation: lag-time was not observed
[2]
  fluorescence intensity of DPPP / oxidation of C3A cell: concentration dependence and low fluorescence intensity; also recorded: significantly reduced oxidation of a C3A cell; also recorded: showed an antioxidant capacity in a dose-dependent manner
[3]
  solubility: show lipid solubility and water solubility
